Here are results for one substance from patent US11208497B2, “Antibodies comprising C-terminal light chain polypeptide extensions and conjugates and methods of use thereof” (ZYMEWORKS INC., priority 2013, dated 2021).

The experiment has as its system CD30 antigen positive Karpas 299 cells. The experiment in a line: In vitro cell proliferation assay, Karpas 299 cells (Example 18). The experiment is classed as cell-based.

The term EC50 denotes the concentration that produces a half-maximal response. Low readings indicate higher potency in that assay, high ones lower potency in that assay. As for “B-MCvcPABC-MMAE: Brentuximab (B) without light chain extension conjugated to MCvcPABC-MMAE, DAR 3.5 [reference compound]”, the EC50 turned out to be 8 pM.
